Test results from ChEMBL document CHEMBL5543162, “Discovery of a Novel Orally Bioavailable FLT3-PROTAC Degrader for Efficient Treatment of Acute Myeloid Leukemia and Overcoming Resistance of FLT3 Inhibitors” (J Med Chem, 2024).
Activity calls are given as the source filed them. The calls are words filed in the database; no cut-off is given here.

Legend:
[1] = test system: Protein cereblon/Receptor-type tyrosine-protein kinase FLT3 (Homo sapiens), P36888+Q96SW2 [UNDEFINED MUTATION]; test: PROTAC activity at CRBN/FLT3-ITD mutant in membrane of human MV4-11 cells assessed as protein degradation at 100 nM measured after 24 hrs by immunofluorescence analysis
MV4-11 [2] = test: Antitumor activity against human MV4-11 cells expressing luciferase xenografted in NSG mouse assessed as increase in animal survival at 5 mg/kg, po administered daily for 3 weeks and measured for 66 days; format: functional, organism-based; details: time 66.0 day
MV4-11 [3] = test: Antitumor activity against human MV4-11 cells xenografted in nu/nu mouse at 1.25 mg/kg, po administered daily for 2 weeks relative to control; format: functional; details: MV4-11, 336 h, read-out: TGI
[4] = test system: Protein cereblon/Receptor-type tyrosine-protein kinase FLT3 (Homo sapiens), P36888+Q96SW2 [UNDEFINED MUTATION]; test: PROTAC activity at CRBN/FLT3-ITD mutant in human MV4-11 cells assessed as decrease in S6K level incubated for 12 hrs by Western blot analysis; format: cell-based; details: dose <= 20.0 nM

Sequence of Protein cereblon/Receptor-type tyrosine-protein kinase FLT3 (Homo sapiens), P36888+Q96SW2 [UNDEFINED MUTATION] (P36888 whole entry, looked up, stated change not applied): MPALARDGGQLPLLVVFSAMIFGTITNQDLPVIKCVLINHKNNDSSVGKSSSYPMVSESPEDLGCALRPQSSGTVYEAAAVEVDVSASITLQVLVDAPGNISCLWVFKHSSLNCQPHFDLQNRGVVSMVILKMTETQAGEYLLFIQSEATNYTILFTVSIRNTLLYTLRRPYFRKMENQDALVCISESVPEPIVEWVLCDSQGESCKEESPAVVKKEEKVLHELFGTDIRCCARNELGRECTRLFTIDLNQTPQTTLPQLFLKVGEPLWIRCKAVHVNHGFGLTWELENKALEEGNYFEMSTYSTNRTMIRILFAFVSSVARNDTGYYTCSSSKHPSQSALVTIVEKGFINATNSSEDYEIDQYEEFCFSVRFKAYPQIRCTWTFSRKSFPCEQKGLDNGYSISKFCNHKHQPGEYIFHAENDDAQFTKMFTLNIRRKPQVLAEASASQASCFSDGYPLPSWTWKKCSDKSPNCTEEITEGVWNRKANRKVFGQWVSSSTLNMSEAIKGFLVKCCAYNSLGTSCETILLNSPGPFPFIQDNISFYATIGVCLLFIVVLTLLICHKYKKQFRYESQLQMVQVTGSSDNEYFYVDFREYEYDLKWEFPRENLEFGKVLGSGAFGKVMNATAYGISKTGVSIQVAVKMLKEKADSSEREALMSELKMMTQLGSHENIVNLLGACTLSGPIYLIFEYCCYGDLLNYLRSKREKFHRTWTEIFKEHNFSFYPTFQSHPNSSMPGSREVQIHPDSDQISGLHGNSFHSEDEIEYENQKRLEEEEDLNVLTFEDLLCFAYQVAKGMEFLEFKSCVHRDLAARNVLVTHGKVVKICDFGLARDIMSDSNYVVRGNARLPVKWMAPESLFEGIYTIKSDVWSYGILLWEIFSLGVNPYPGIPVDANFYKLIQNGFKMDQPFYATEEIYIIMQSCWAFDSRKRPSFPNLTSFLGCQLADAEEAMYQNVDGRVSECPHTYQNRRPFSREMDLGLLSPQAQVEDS
Sequence of Protein cereblon/Receptor-type tyrosine-protein kinase FLT3 (Homo sapiens), P36888+Q96SW2 [UNDEFINED MUTATION] (Q96SW2 whole entry, looked up, stated change not applied): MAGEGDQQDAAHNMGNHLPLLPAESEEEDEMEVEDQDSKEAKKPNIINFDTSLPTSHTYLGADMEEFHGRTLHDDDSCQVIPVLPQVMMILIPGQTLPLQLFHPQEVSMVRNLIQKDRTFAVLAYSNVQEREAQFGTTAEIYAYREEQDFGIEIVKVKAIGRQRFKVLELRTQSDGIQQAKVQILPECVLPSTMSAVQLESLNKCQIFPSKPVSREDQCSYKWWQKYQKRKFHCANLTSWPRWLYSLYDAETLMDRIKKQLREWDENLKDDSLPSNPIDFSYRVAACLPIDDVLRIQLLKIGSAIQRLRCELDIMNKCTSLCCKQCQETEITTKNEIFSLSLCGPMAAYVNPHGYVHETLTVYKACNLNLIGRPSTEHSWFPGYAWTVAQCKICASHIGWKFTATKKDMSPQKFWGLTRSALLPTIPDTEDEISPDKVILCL

SMILES: Cc1c(NC(=O)CN2CCN(CC3CCN(c4ccc5c(c4)C(=O)N(C4CCC(=O)NC4=O)C5=O)CC3)CC2)c[nH]c1/C=C1\C(=O)Nc2ccc(F)cc21 (centres undefined)
- Activity [1]: Active
- Activity (MV4-11 [2]): Active
- inhibition in vivo at 1.25 mg/kg (MV4-11 [3]): 51.4%
- Activity [4]: Dose-Dependent Effect
